The structures appear in SMILES notation. A value given as a limit tells only on which side of the number the result lay.

Data on 20 molecules can be found in patent publication US12721826B2, “Salt of a pharmaceutical compound” (ACTIMED THERAPEUTICS LTD, priority 2023, dated 2026).

For data set [1] the following is noted: counterion acid; cited from earlier work.
The nature of data set [2]: Solid form stability: XRPD re-analysis after drying under vacuum and after storage at 40° C./75% RH. Type of data set: physicochemical. Particulars: for XRPD form after drying and storage: after drying at 40° C. under vacuum and storage at 40° C./75% RH; for hygroscopicity properties: overall assessment in words. The method, then:
XRPD analysis was carried out on a PANalytical X'pert pro with PIXcel detector (128 channels), scanning the samples between 3 and 35° 2θ. The material was gently ground to release any agglomerates and loaded onto a multi-well plate with Kapton or Mylar polymer film to support the sample. The multi-well plate was then placed into the diffractometer and analysed using Cu K radiation (α1 λ=1.54060 Å; α2=1.54443 Å; β=1.39225 Å; α1: α2 ratio=0.5) running in transmission mode (step size 0.0130° 2θ, step time 18.87s) using 40 kV/40 mA generator settings. Data were visualized and images generated using the HighScore Plus 4.7 desktop application (PANalytical, 2017).
Solutions were allowed to evaporate at ambient temperature (ca. 20° C.) and pressure. Potential salts were dried at 40° C. under vacuum for ca. 19 h and re-analyzed by XRPD then stored at 40° C./75% RH for ca. 19 h and re-analyzed by XRPD.

Data set [3] can be described thus: 7 days storage stability of dihydrogenphosphate polymorphs (HPLC purity). Particulars: for stability (comparison of polymorphs, in words): Pattern 3 compared with Pattern 1 and Pattern 2.
Setting [4] is: storage at 40° C./75% RH, ca. 19 h.
The mark [5] stands for this setting: after drying at 40° C. under vacuum.

As for `O=C(O)CCCC(=O)O` [Glutaric acid], in data set [1], the pKa1 was 4.34.

For the molecule `O=C(O)[C@H](O)[C@@H](O)[C@H](O)[C@H](O)CO` [D-Gluconic acid], the pKa1 in data set [1] is 3.8. On to `CC1(C)C2CCC1(CS(=O)(=O)O)C(=O)C2` (stereo not shown) [Camphorsulfonic acid], for which the pKa1 in data set [1] is given as 2.2. As for `C=CCOc1ccccc1OC[C@@H](O)CNC(C)C.O=C(O)c1ccc2ccccc2c1O` [xinafoate Pattern 1], the “XRPD form after drying and storage” value in data set [2] is recorded as “xinafoate Pattern 1 was retained”. For the molecule `O=S(=O)(O)CCS(=O)(=O)O` [Ethane-1,2-disulfonic acid], in data set [1], the pKa1 is listed as −2.1 and the pKa2 is listed as −1.5. With `C=CCOc1ccccc1OC[C@@H](O)CNC(C)C.CC(=O)O` [acetate salt], the hygroscopicity properties result in data set [2] was “poor”.

As to `O=C(O)CNC(=O)c1ccccc1` [Hippuric acid], the pKa1 in data set [1] is on record as 3.6. For the molecule `C=CCOc1ccccc1OC[C@@H](O)CNC(C)C.O=C(O)C(=O)O` [oxalate Pattern 1, S-oxprenolol oxalate], the “XRPD form after drying and storage” value in data set [2] was “oxalate Pattern 1 was retained”. For `CCS(=O)(=O)O` [Ethanesulfonic acid], the pKa1 in data set [1] is 2.1.

For the molecule `C=CCOc1ccccc1OC[C@@H](O)CNC(C)C.O=C(O)C(=O)O` [Oxalate Pattern 1 & 2, S-oxprenolol oxalate], the “Observation after storage at 40° C./75% RH” value in data set [2] (setting [4]) was “predominantly unchanged”. Consider `O=S(=O)(O)c1cccc2c(S(=O)(=O)O)cccc12` [Naphthalene-1,5-disulfonic acid], for which, in data set [1], the pKa1 is reported as −3.4 and the pKa2 was −2.6.

For `O=S(=O)(O)c1ccccc1` [Benzenesulfonic acid], in data set [1], the pKa1 is reported as 0.7. As to `O=C(O)c1cc2ccccc2c(Cc2c(O)c(C(=O)O)cc3ccccc23)c1O` [Pamoic acid], in data set [1], the pKa1 was 2.5 and the pKa2 is recorded as 3.1. Turning to `C=CCOc1ccccc1OC[C@@H](O)CNC(C)C.O=P(O)(O)O` [S-oxprenolol dihydrogenphosphate Pattern 3], the “stability (comparison of polymorphs, in words)” value (shortened to “stability”) in data set [3] is recorded as “improved stability”. The “HPLC purity following storage” value in data set [3] (after 7 days storage at 40° C./75% RH) and in data set [3] (after 7 days storage at ambient temperature) was more than 99.9 % area in each case. As for `C=CCOc1ccccc1OC[C@@H](O)CNC(C)C.O=P(O)(O)O` [S-oxprenolol dihydrogenphosphate Pattern 1], the “XRPD form after stress” value in data set [2] (after heating to 40° C., drying at ambient temperature (ca. 20° C.) under vacuum and storage at 40° C./75% RH) was “dihydrogenphosphate Pattern 1 to remain”. Moreover, in data set [3], the “stability” value is recorded as “issues with stability”.

In the case of `C=CCOc1ccccc1OC[C@@H](O)CNC(C)C.O=C(O)C(=O)O` [oxalate Pattern 2, S-oxprenolol oxalate], in data set [2] (setting [5]), the “XRPD form after drying” value is “a mixture of Pattern 1 and 2 was obtained”. Regarding `C=CCOc1ccccc1OC[C@@H](O)CNC(C)C.CC(=O)O` [Acetate Pattern 2], the “Observation after storage at 40° C./75% RH” value is recorded as “partially deliquesce” in data set [2] (material from THF); “deliquesced” in data set [2] (material from acetone, ethyl acetate and t-BME). Besides, the “XRPD result after storage at 40° C./75% RH” value in data set [2] (material from acetone) is on record as “Pattern 2 peaks remained”; in data set [2] (material from ethyl acetate and t-BME), “Predominantly amorphous material was obtained”.

`C=CCOc1ccccc1OC[C@@H](O)CNC(C)C.O=P(O)(O)O` [S-oxprenolol dihydrogenphosphate Pattern 2]: the “XRPD form after drying” value is reported as “phosphate Pattern 3 was obtained after drying” in data set [2] (dried under vacuum at ambient temperature (ca. 20° C.) for ca. 69 h, precipitated from ethanol/heptane) and “converted to phosphate Pattern 3” in data set [2] (isolated from temperature cycling in 1-butanol, after drying). Also, the “stability” value in data set [3] is “issues with stability”.

Take `C=CCOc1ccccc1OC[C@@H](O)CNC(C)C.O=C(O)CNC(=O)c1ccccc1` [hippurate Pattern 1]: the “XRPD form after drying” value in data set [2] (setting [5]) is on record as “hippurate Pattern 1 was retained”. Also, the hygroscopicity properties entry in data set [2] is given as “poor”. Moreover, the “Observation after storage at 40° C./75% RH” value in data set [2] (setting [4]) is listed as “deliquescence was observed to amorphous materials”. `O=C(O)c1ccccc1C(=O)O` [Phthalic acid]: in data set [1], the pKa1 was 2.89 and the pKa2 is 5.51.
